Calls of active or inactive are those of the source. The calls are words filed in the database; no cut-off is given here.
What was measured:
MCF7 [1] = experiment: Antiproliferative activity against human MCF7 cells assessed as cell growth inhibition after 72 hrs by MTT assay; format: functional; settings: MCF7, 72 h
HCT-116 [2] = experiment: Antiproliferative activity against human HCT116 cells assessed as cell growth inhibition after 72 hrs by MTT assay; format: functional; settings: HCT-116, 72 h
[3] = Octanol-buffer partition coefficient, log D of the compound at pH 7.4 by shake-flask method; format: physicochemical
[4] = Aqueous solubility of the compound by turbidimetric solubility assay; format: physicochemical; settings: buffer
[5] = Apparent permeability across apical to basolateral side in human Caco2 cells; format: ADME, cell-based; settings: Caco-2
[6] = Apparent permeability across basolateral to apical side in human Caco2 cells; format: ADME, cell-based; settings: Caco-2
[7] = Half life in rat liver microsomes; format: ADME
[8] = target: Voltage-gated inwardly rectifying potassium channel KCNH2 (Homo sapiens, UniProt Q12809); experiment: Inhibition of human ERG expressed in CHO cells
[9] = Cmax in mouse at 40 mg/kg, po after 24 hrs; format: ADME, organism-based; set-up: dose 40 mg/kg, route oral; settings: in vivo
[10] = AUC (0 to t) in mouse at 40 mg/kg, po after 24 hrs; format: ADME, organism-based; set-up: time < 24 hr, dose 40 mg/kg, route oral; settings: plasma
[11] = Elimination half life in mouse at 40 mg/kg, po after 24 hrs; format: ADME, organism-based; set-up: dose 40 mg/kg, route oral; settings: in vivo, read-out: beta t1/2 (converted)
[12] = Oral bioavailability (0 to t) in mouse at 40 mg/kg after 24 hrs; format: ADME, organism-based; settings: in vivo
[13] = Oral bioavailability (0 to infinity) in mouse at 40 mg/kg after 24 hrs; format: ADME, organism-based; settings: in vivo
MCF7 [14] = experiment: Selectivity ratio of IC50 for human WI38 cells to IC50 for ER positive human MCF7 cells; format: functional
WI-38 [15] = experiment: Selectivity ratio of IC50 for human WI38 cells to IC50 for ER negative human MDA-MB-231 cells; format: functional
HeLa [16] = experiment: Selectivity ratio of IC50 for human WI38 cells to IC50 for human HeLa cells; format: functional
PANC-1 [17] = experiment: Selectivity ratio of IC50 for human WI38 cells to IC50 for human PANC1 cells; format: functional
DU-145 [18] = experiment: Selectivity ratio of IC50 for human WI38 cells to IC50 for AR negative human DU145 cells; format: functional
LNCaP [19] = experiment: Selectivity ratio of IC50 for human WI38 cells to IC50 for AR positive human LNCAP cells; format: functional
HCT-116 [20] = experiment: Selectivity ratio of IC50 for human WI38 cells to IC50 for human HCT116 cells; format: functional
A2780 [21] = experiment: Selectivity ratio of IC50 for human WI38 cells to IC50 for human A2780 cells; format: functional
MCF7 [22] = experiment: Ratio of ON01910 IC50 to compound IC50 for ER positive human MCF7 cells; format: functional
MDA-MB-231 [23] = experiment: Ratio of ON01910 IC50 to compound IC50 for ER negative human MDA-MB-231 cells; format: functional
HeLa [24] = experiment: Ratio of ON01910 IC50 to compound IC50 for human HeLa cells; format: functional
PANC-1 [25] = experiment: Ratio of ON01910 IC50 to compound IC50 for human PANC1 cells; format: functional
DU-145 [26] = experiment: Ratio of ON01910 IC50 to compound IC50 for AR negative human DU145 cells; format: functional
LNCaP [27] = experiment: Ratio of ON01910 IC50 to compound IC50 for AR positive human LNCAP cells; format: functional
HCT-116 [28] = experiment: Ratio of ON01910 IC50 to compound IC50 for human HCT116 cells; format: functional
A2780 [29] = experiment: Ratio of ON01910 IC50 to compound IC50 for human A2780 cells; format: functional
A2780 [30] = experiment: Antiproliferative activity against human A2780 cells assessed as cell growth inhibition after 72 hrs by MTT assay; format: functional; settings: A2780, 72 h
MCF7 [31] = experiment: Antiproliferative activity against ER positive human MCF7 cells assessed as cell growth inhibition after 72 hrs by MTT assay; format: functional; settings: MCF7, 72 h
MDA-MB-231 [32] = experiment: Antiproliferative activity against ER negative human MDA-MB-231 cells assessed as cell growth inhibition after 72 hrs by MTT assay; format: functional; settings: MDA-MB-231, 72 h
HeLa [33] = experiment: Antiproliferative activity against human HeLa cells assessed as cell growth inhibition after 72 hrs by MTT assay; format: functional
[34] = Antiproliferative activity against human PANC1 cells assessed as cell growth inhibition after 72 hrs by MTT assay; format: functional; settings: PANC-1, 72 h
LNCaP [35] = experiment: Antiproliferative activity against AR positive human LNCAP cells assessed as cell growth inhibition after 72 hrs by MTT assay; format: functional
DU-145 [36] = experiment: Antiproliferative activity against AR negative human DU145 cells assessed as cell growth inhibition after 72 hrs by MTT assay; format: functional; settings: DU-145, 72 h
WI-38 [37] = experiment: Antiproliferative activity against human WI38 cells assessed as cell growth inhibition after 72 hrs by MTT assay; format: functional; settings: WI-38, 72 h
[38] = Dissociation constant, pKa of the compound by pH-metric method; format: physicochemical
[39] = Cmax in mouse at 10 mg/kg, po after 24 hrs; format: ADME, organism-based; set-up: dose 10 mg/kg, route oral; settings: in vivo
[40] = AUC (0 to t) in mouse at 10 mg/kg, po after 24 hrs; format: ADME, organism-based; set-up: time < 24 hr, dose 10 mg/kg, route oral; settings: plasma
[41] = Elimination half life in mouse at 10 mg/kg, po after 24 hrs; format: ADME, organism-based; set-up: dose 10 mg/kg, route oral; settings: in vivo, read-out: beta t1/2 (converted)
[42] = Oral bioavailability (0 to t) in mouse at 10 mg/kg after 24 hrs; format: ADME, organism-based; settings: in vivo
A2780 [43] = experiment: Induction of apoptosis in human A2780 cells assessed as caspase-3/7 activation at […] after 24 hrs by using Apo-ONE homogeneous caspase-3/7 kit; format: functional, cell-based
WI-38 [44] = experiment: Induction of apoptosis in human WI38 cells assessed as caspase-3/7 activation up to 1 uM after 24 hrs by using Apo-ONE homogeneous caspase-3/7 kit; format: functional, cell-based
A2780 [45] = experiment: Reduction in CDC25C level in human A2780 cells at […] after 24 hrs by Western blot analysis; format: functional, cell-based
A2780 [46] = experiment: Reduction in Mcl1 level in human A2780 cells at […] after 24 hrs by Western blot analysis; format: functional, cell-based
HCT-116 [47] = experiment: Antitumor activity against human HCT116 cells xenografted in mouse assessed as delay in tumor growth at 33.3 mg/kg, ip daily 5 days/week for 2 weeks; format: functional, organism-based; set-up: dose 33.3 mg/kg
HCT-116 [48] = experiment: Antitumor activity against human HCT116 cells xenografted in mouse assessed as delay in tumor growth at 100 mg/kg, ip daily 5 days/week for 2 weeks; format: functional, organism-based; set-up: dose 100 mg/kg

Chain of Voltage-gated inwardly rectifying potassium channel KCNH2 (Q12809 whole entry): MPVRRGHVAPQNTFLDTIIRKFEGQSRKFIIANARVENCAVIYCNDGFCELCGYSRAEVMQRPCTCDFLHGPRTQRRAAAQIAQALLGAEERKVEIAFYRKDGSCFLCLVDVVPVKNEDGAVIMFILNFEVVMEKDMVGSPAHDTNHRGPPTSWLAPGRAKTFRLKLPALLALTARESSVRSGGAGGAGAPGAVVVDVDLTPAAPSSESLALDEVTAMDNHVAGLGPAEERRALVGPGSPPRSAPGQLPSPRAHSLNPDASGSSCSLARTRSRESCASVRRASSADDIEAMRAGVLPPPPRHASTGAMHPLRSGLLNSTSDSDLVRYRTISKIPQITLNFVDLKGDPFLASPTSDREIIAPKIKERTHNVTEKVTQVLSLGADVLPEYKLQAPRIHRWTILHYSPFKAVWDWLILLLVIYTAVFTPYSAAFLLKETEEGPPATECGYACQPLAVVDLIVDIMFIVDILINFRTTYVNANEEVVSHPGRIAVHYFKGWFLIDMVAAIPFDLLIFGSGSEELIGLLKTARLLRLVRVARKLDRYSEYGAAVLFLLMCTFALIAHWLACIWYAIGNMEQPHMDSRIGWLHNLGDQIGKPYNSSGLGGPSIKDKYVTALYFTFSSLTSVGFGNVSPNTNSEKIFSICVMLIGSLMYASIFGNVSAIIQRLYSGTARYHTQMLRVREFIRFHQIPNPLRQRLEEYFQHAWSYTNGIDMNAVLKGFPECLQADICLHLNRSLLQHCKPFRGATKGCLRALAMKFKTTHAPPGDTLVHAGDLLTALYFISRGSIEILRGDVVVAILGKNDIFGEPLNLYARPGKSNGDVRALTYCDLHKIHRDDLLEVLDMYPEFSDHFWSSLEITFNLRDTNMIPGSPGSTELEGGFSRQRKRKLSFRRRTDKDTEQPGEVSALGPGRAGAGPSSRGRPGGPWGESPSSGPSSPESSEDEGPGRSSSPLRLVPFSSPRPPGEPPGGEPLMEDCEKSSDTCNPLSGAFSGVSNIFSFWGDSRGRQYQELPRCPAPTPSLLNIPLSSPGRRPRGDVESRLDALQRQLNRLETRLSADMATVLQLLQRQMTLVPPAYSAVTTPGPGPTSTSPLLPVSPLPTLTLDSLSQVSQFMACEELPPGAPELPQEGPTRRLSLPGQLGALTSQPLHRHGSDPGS

COc1cc(OC)c(C(C(c2cnc(OC)c([N+](=O)[O-])c2)S(C)(=O)=O)N2CCCCC2)c(OC)c1 (stereo not given)
GI50 (MCF7 [1]): 6410 nM
GI50 (HCT-116 [2]): 4400 nM

COc1cc(OC)c(/C=C/S(=O)(=O)Cc2cnc(OC)c(N)c2)c(OC)c1
logD [3]: 2.34
solubility kinetic [4]: > 100 µM
Papp A→B [5]: 42.3 ×10⁻⁶ cm/s
Papp B→A [6]: 21.5 ×10⁻⁶ cm/s
half-life [7]: 0.333 h
IC50 [8]: > 25000 nM
Cmax [9]: 3000 nM
AUC(0-t) at 24 h [10]: 24.6 µM·h
half-life [11]: 61.8 h
bioavailability [12]: 28%
bioavailability [13]: 100%
Ratio IC50 (MCF7 [14]): >1400
Ratio IC50 (WI-38 [15]): >1400
Ratio IC50 (HeLa [16]): >1400
Ratio IC50 (PANC-1 [17]): >1400
Ratio IC50 (DU-145 [18]): >1400
Ratio IC50 (LNCaP [19]): >1400
Ratio IC50 (HCT-116 [20]): >1400
Ratio IC50 (A2780 [21]): >1400
Ratio IC50 (MCF7 [22]): 10
Ratio IC50 (MDA-MB-231 [23]): 10
Ratio IC50 (HeLa [24]): 10
Ratio IC50 (PANC-1 [25]): 10
Ratio IC50 (DU-145 [26]): 10
Ratio IC50 (LNCaP [27]): 10
Ratio IC50 (HCT-116 [28]): 10
Ratio IC50 (A2780 [29]): 10
GI50 (A2780 [30]): 5 nM
GI50 (MCF7 [1]): 6 nM
GI50 (HCT-116 [2]): 5 nM
GI50 (MCF7 [31]): 6 nM
GI50 (MDA-MB-231 [32]): 6 nM
GI50 (HeLa [33]): 4 nM
GI50 [34]: < 1 nM
GI50 (LNCaP [35]): 3 nM
GI50 (DU-145 [36]): 5 nM
GI50 (WI-38 [37]): > 10000 nM
pKa [38]: 2.39

COc1cc(OC)c(/C=C/S(=O)(=O)Cc2ccc(OC)c([N+](=O)[O-])n2)c(OC)c1
GI50 (A2780 [30]): > 10000 nM
GI50 (MCF7 [1]): 9970 nM
GI50 (HCT-116 [2]): > 10000 nM

COc1cc(OC)c(/C=C/S(=O)(=O)Cc2ccc(OC)c(NCC(=O)[O-])c2)c(OC)c1.[Na+] [RIGOSERTIB SODIUM]
Cmax [39]: 400 nM
AUC(0-t) at 24 h [40]: 1 µM·h
half-life [41]: 2.6 h
bioavailability [42]: 9%

CCS(=O)(=O)Nc1cc(CS(=O)(=O)/C=C/c2c(OC)cc(OC)cc2OC)cnc1OC
GI50 (A2780 [30]): > 10000 nM
GI50 (MCF7 [1]): > 10000 nM
GI50 (HCT-116 [2]): > 10000 nM

COc1cc(OC)c(/C=C/S(=O)(=O)Cc2cnc(OC)c(NC(C)=O)c2)c(OC)c1
GI50 (A2780 [30]): 7100 nM
GI50 (MCF7 [1]): 7500 nM
GI50 (HCT-116 [2]): 8220 nM

CCOC(=O)CNc1cc(CS(=O)(=O)/C=C/c2c(OC)cc(OC)cc2OC)cnc1OC
GI50 (A2780 [30]): 409 nM
GI50 (MCF7 [1]): 940 nM
GI50 (HCT-116 [2]): 517 nM

COc1cc(OC)c(/C=C/S(=O)(=O)Cc2ccc(OC)c(NCC(=O)O)c2)c(OC)c1
Activity (A2780 [43]): Active
Activity (WI-38 [44]): inactive
inhibition (A2780 [45]): Active
inhibition (A2780 [46]): Active

COc1cc(OC)c(/C=C/S(=O)(=O)Cc2ccc(OC)c(NC(C)=O)n2)c(OC)c1
GI50 (A2780 [30]): 500 nM
GI50 (MCF7 [1]): 660 nM
GI50 (HCT-116 [2]): 320 nM

CCN(C(C)=O)c1cc(CS(=O)(=O)/C=C/c2c(OC)cc(OC)cc2OC)cnc1OC
GI50 (MCF7 [1]): > 10000 nM
GI50 (HCT-116 [2]): > 10000 nM

COc1cc(OC)c(/C=C/S(=O)(=O)Cc2ccc(OC)c(NCC(=O)O)n2)c(OC)c1
GI50 (A2780 [30]): 253 nM
GI50 (MCF7 [1]): 545 nM
GI50 (HCT-116 [2]): 329 nM

CCCS(=O)(=O)Nc1cc(CS(=O)(=O)/C=C/c2c(OC)cc(OC)cc2OC)cnc1OC
GI50 (A2780 [30]): > 10000 nM
GI50 (MCF7 [1]): > 10000 nM
GI50 (HCT-116 [2]): > 10000 nM

CCOC(=O)CNc1nc(CS(=O)(=O)/C=C/c2c(OC)cc(OC)cc2OC)ccc1OC
GI50 (A2780 [30]): 6910 nM
GI50 (MCF7 [1]): 5710 nM
GI50 (HCT-116 [2]): 5450 nM

COc1cc(OC)c(/C=C/S(=O)(=O)Cc2cnc(OC)c(NCC(=O)O)c2)c(OC)c1
GI50 (A2780 [30]): 376 nM
GI50 (HCT-116 [2]): 410 nM

COc1cc(OC)c(/C=C/S(=O)(=O)Cc2cnc(OC)c(NCC(N)=O)c2)c(OC)c1
GI50 (MCF7 [1]): > 10000 nM
GI50 (HCT-116 [2]): 6590 nM

COc1cc(OC)c(/C=C/S(=O)(=O)Cc2cnc(OC)c(NS(C)(=O)=O)c2)c(OC)c1
logD [3]: 1.52
solubility kinetic [4]: > 100 µM
Papp A→B [5]: 8.9 ×10⁻⁶ cm/s
Papp B→A [6]: 47.1 ×10⁻⁶ cm/s
half-life [7]: 1.17 h
Cmax [39]: 6300 nM
AUC(0-t) at 24 h [40]: 7.2 µM·h
half-life [41]: 3 h
Activity (HCT-116 [47]): Active
Activity (HCT-116 [48]): Active
GI50 (A2780 [30]): 317 nM
GI50 (MCF7 [1]): 780 nM
GI50 (HCT-116 [2]): 570 nM
GI50 (MCF7 [31]): 780 nM
GI50 (MDA-MB-231 [32]): 671 nM
GI50 (HeLa [33]): 682 nM
GI50 [34]: 875 nM
GI50 (WI-38 [37]): > 10000 nM
pKa [38]: 7.66

COc1cc(OC)c(/C=C/S(=O)(=O)Cc2cnc(OC)c([N+](=O)[O-])c2)c(OC)c1
GI50 (A2780 [30]): 7210 nM
GI50 (MCF7 [1]): 5220 nM
GI50 (HCT-116 [2]): 7430 nM
